US4443536A, “Nondiffusible photographic couplers and photographic elements and processes employing same” (Eastman Kodak Company, priority 1982, dated 1984)
Where “and” joins values, the source holds several entries; their conditions need not be identical. Equal entries are not always repeated. Values belong to the compound of their own block, whether it stands above or below them.

Assay: Dye hue from spectrophotometric curves: λ-max, half band width, curve shape factor
Conditions: for CSF (curve shape factor, 100 X TBW/HBW) / HBW (half band width) / λ-max (maximum absorption peak of dye): Table I; for CSF / HBW / λ-max: Table II
Procedure: Photographic elements containing couplers of this invention and control couplers were prepared and tested according to the procedures described below.
The photosensitive layer was overcoated with a layer containing gelatin at 1.08 g/m^2 and bis-vinyl-sulfonylmethyl ether at 1.75 weight percent based on total gelatin.
Samples of each element were imagewise exposed through a graduated-density test object and processed at 40° C. employing one of three color developing solutions identified below then stopped, bleached, fixed and washed.
In each element, well-defined, dye images were produced which were evaluated by plotting dye density vs. log exposure sensitometric curves and recording the maximum dye density (Dmax) and gamma (γ) i.e., the contrast determined by the slope of the straight line portion of the curve. Additionally, dye hues were evaluated from spectrophotometric curves by measuring the maximum absorption peak (λmax) normalized to a density of 1.0 and the half band width (HBW). Halfband width is the width, in nanometers, of the spectrophotometric curve at one-half the difference between maximum density and stain. Similarly, the top-band width (TBW) and bottom-band width (BBW) of the curve were measured at three-fourths and one-fourth, respectively, of the normalized density. Curve shape factor (CSF) equals 100 X TBW/HBW and provides a ratio of the width near the top and bottom of the absorption curve. The greater this ratio, the steeper are the sides of the absorption peak, and the more efficient is the dye's absorption of light in its spectral region.
Photographic elements containing additional couplers of this invention were prepared, processed and evaluated as described above in connection with Examples 1-14.

[1] = coupler solvent CS-1, developer D-1
[2] = coupler solvent CS-2, developer D-2
[3] = coupler solvent CS-2, developer D-3
[4] = coupler solvent CS-3, developer D-2
[5] = coupler solvent CS-3, developer D-1
[6] = coupler solvent CS-3, developer D-3
[7] = coupler solvent CS-4, developer D-3

CSF (curve shape factor, 100 X TBW/HBW) [1]: 43.3 and 43.6 and 43.1 | HBW (half band width) [1]: 94 nanometers | λ-max (maximum absorption peak of dye) [1]: 531
Structure (SMILES): CCCCCCCCCCCCCCCc1cccc(OC(CC)C(=O)NC2=NN(c3c(C)cc(C)cc3Cl)C(=O)C2)c1 (stereo not drawn) [CC-1, reference compound]

CSF (curve shape factor, 100 X TBW/HBW) [2]: 46.3 and 39.5 and 39.9 | λ-max (maximum absorption peak of dye) [2]: 539 and 540 | CSF (curve shape factor, 100 X TBW/HBW) [3]: 40.4 | HBW (half band width) [3]: 79 nanometers | λ-max (maximum absorption peak of dye) [3]: 545
Structure (SMILES): CCCCCCCCCCCCC(Oc1ccc(O)c(C(C)(C)C)c1)C(=O)Nc1ccc(Cl)c(NC2=NN(c3c(Cl)cc(Cl)cc3Cl)C(=O)C2)c1 (stereo not drawn) [CC-2, reference compound]
HBW (half band width) [2]: 81 nanometers and 79 nanometers and 78 nanometers

CSF (curve shape factor, 100 X TBW/HBW) [3]: 45.3 | HBW (half band width) [3]: 88 nanometers | λ-max (maximum absorption peak of dye) [3]: 556
Structure (SMILES): CCC(C)(C)c1ccc(OCC(=O)Nc2cccc(C(=O)NC3=NN(c4c(Cl)cc(Cl)cc4Cl)C(=O)C3)c2)c(C(C)(C)CC)c1 [CC-3, reference compound]

CSF (curve shape factor, 100 X TBW/HBW) [4]: 45.2 | HBW (half band width) [4]: 141 nanometers | λ-max (maximum absorption peak of dye) [4]: 659
Structure (SMILES): CCc1c(Cl)cc(NC(=O)C(CC)Oc2ccc(C(C)(C)CC)cc2C(C)(C)CC)c(O)c1Cl (stereo not drawn) [CC-4, reference compound]

CSF (curve shape factor, 100 X TBW/HBW) [4]: 43.5 | HBW (half band width) [4]: 88 nanometers | λ-max (maximum absorption peak of dye) [4]: 446
Structure (SMILES): CCCCCCCCCCCCCCCCS(=O)(=O)Nc1ccc(Cl)c(NC(=O)C(Oc2ccc(S(=O)(=O)c3ccc(OCc4ccccc4)cc3)cc2)C(=O)C(C)(C)C)c1 (stereo not drawn) [CC-5, reference compound]

CSF (curve shape factor, 100 X TBW/HBW) [4]: 42.0 | HBW (half band width) [4]: 85 nanometers | λ-max (maximum absorption peak of dye) [4]: 441
Structure (SMILES): CCC(C)(C)c1ccc(OCCCC(=O)Nc2ccc(Cl)c(NC(=O)C(Oc3ccc(S(=O)(=O)c4ccc(OCc5ccccc5)cc4)cc3)C(=O)C(C)(C)C)c2)c(C(C)(C)CC)c1 (stereo not drawn) [CC-6, reference compound]

CSF (curve shape factor, 100 X TBW/HBW) [4]: 45.2 | HBW (half band width) [4]: 85 nanometers | λ-max (maximum absorption peak of dye) [4]: 445
Structure (SMILES): CCCCC(Oc1ccc(S(=O)(=O)c2ccc(OCc3ccccc3)cc2)cc1)C(=O)Nc1ccc(Cl)c(NC(=O)C(Oc2ccc(S(=O)(=O)c3ccc(O)cc3)cc2)C(=O)C(C)(C)C)c1 (stereo not drawn) [CC-7, reference compound]

CSF (curve shape factor, 100 X TBW/HBW) [4]: 44.3 | HBW (half band width) [4]: 90 nanometers | λ-max (maximum absorption peak of dye) [4]: 439
Structure (SMILES): CCCCC(Oc1ccc(S(=O)(=O)c2ccc(OCc3ccccc3)cc2)cc1)C(=O)Nc1cccc(NC(=O)C(Oc2ccc(S(=O)(=O)c3ccc(O)cc3)cc2)C(=O)C(C)(C)C)c1 (stereo not drawn) [CC-8, reference compound]

CSF (curve shape factor, 100 X TBW/HBW) [5]: 43.8 | HBW (half band width) [5]: 87 nanometers | λ-max (maximum absorption peak of dye) [5]: 450
Structure (SMILES): CCCCCCCCCCC(Oc1ccc(S(=O)(=O)c2ccc(OCc3ccccc3)cc2)cc1)C(=O)Nc1ccc(Cl)c(NC(=O)C(Oc2ccc(S(=O)(=O)c3ccc(O)cc3)cc2)C(=O)C(C)(C)C)c1 (stereo not drawn) [CC-9, reference compound]

CSF [5]: 45.7% | HBW [5]: 144 nm | λ-max [5]: 655 nm
Structure (SMILES): CCCCCCCCCCCCC(Oc1ccc(S(=O)(=O)c2ccc(O)cc2)cc1)C(=O)Nc1ccc(NC(=O)CCC)c(O)c1 (stereo not drawn) [Coupler C-2]

CSF [4]: 47.8% | HBW [4]: 161 nm | λ-max [4]: 659 nm
Structure (SMILES): CCCCCCCCCCCCC(Oc1ccc(S(=O)(=O)c2ccc(O)cc2)cc1)C(=O)Nc1ccc(NC(=O)C(F)(F)F)c(O)c1 (stereo not drawn) [Coupler C-3]

CSF [6]: 44.4% | HBW [6]: 135 nm | λ-max [6]: 702 nm
Structure (SMILES): CCCCCCCCCCC(Oc1ccc(S(=O)(=O)c2ccc(O)cc2)cc1)C(=O)Nc1cc(O)c(NC(=O)Nc2cccc(S(=O)(=O)NCCCC)c2)cc1OC (stereo not drawn) [Coupler C-13]

CSF (curve shape factor, 100 X TBW/HBW) [4]: 47.0 | HBW (half band width) [4]: 160 nanometers | λ-max (maximum absorption peak of dye) [4]: 675
Structure (SMILES): CCCCCCCCCCC(Oc1ccc(S(=O)(=O)c2ccc(O)cc2)cc1)C(=O)Nc1cc(Cl)c(CC)c(Cl)c1O (stereo not drawn) [Coupler C-31]

CSF (curve shape factor, 100 X TBW/HBW) [1]: 46.0 | HBW (half band width) [1]: 96 nanometers | λ-max (maximum absorption peak of dye) [1]: 546 | CSF [1]: 45.7% | HBW [1]: 96 nm | λ-max [1]: 546 nm
Structure (SMILES): CCCCCCCCCCCCC(Oc1ccc(S(=O)(=O)c2ccc(O)cc2)cc1)C(=O)NC1=NN(c2c(Cl)cc(Cl)cc2Cl)C(=O)C1 (stereo not drawn) [Coupler M-3]

CSF (curve shape factor, 100 X TBW/HBW) [3]: 50.5 | HBW (half band width) [3]: 86 nanometers | λ-max (maximum absorption peak of dye) [3]: 550
Structure (SMILES): CCCCCCCCCCC(Oc1ccc(S(=O)(=O)c2ccc(O)cc2)cc1)C(=O)Nc1ccc(CCCc2n[nH]c3cc(C)nn23)cc1 (stereo not drawn) [Coupler M-8]

CSF [7]: 44.2% | HBW [7]: 90 nm | λ-max [7]: 558 nm
Structure (SMILES): CCCCCCCCCCC(Oc1ccc(S(=O)(=O)c2ccc(O)cc2)cc1)C(=O)Nc1ccc(CCCc2n[nH]c3c(Cl)c(C)nn23)cc1 (stereo not drawn) [Coupler M-9]

CSF (curve shape factor, 100 X TBW/HBW) [1]: 47.0 | HBW (half band width) [1]: 91 nanometers | λ-max (maximum absorption peak of dye) [1]: 545
Structure (SMILES): CCCCCCCCCCCCC(Oc1ccc(S(=O)(=O)c2ccc(O)cc2)cc1)C(=O)Nc1ccc(Cl)c(NC2=NN(c3c(Cl)cc(Cl)cc3Cl)C(=O)C2)c1 (stereo not drawn) [Coupler M-27]

CSF (curve shape factor, 100 X TBW/HBW) [1]: 46.7 | HBW (half band width) [1]: 92 nanometers | λ-max (maximum absorption peak of dye) [1]: 549 | CSF (curve shape factor, 100 X TBW/HBW) [2]: 46.5 | HBW (half band width) [2]: 93 nanometers | λ-max (maximum absorption peak of dye) [2]: 541 | CSF (curve shape factor, 100 X TBW/HBW) [3]: 46.4 | HBW (half band width) [3]: 94 nanometers | λ-max (maximum absorption peak of dye) [3]: 549 | CSF [3]: 42.6% | HBW [3]: 94 nm | λ-max [3]: 549 nm
Structure (SMILES): CCCCCCCCCCC(Oc1ccc(S(=O)(=O)c2ccc(O)cc2)cc1)C(=O)Nc1ccc(Cl)c(NC2=NN(c3c(Cl)cc(Cl)cc3Cl)C(=O)C2)c1 (stereo not drawn) [Coupler M-28]

CSF (curve shape factor, 100 X TBW/HBW) [2]: 46.7 | HBW (half band width) [2]: 88 nanometers | λ-max (maximum absorption peak of dye) [2]: 540 | CSF (curve shape factor, 100 X TBW/HBW) [3]: 40.9 | HBW (half band width) [3]: 90 nanometers | λ-max (maximum absorption peak of dye) [3]: 545
Structure (SMILES): CCCCCCCCCCC(Oc1ccc(S(=O)(=O)c2ccc(O)cc2)cc1)C(=O)Nc1ccc(Cl)c(NC2=NN(c3c(Cl)cc(Cl)cc3Cl)C(=O)C2SCCCCCCC)c1 (stereo not drawn) [Coupler M-29]

CSF (curve shape factor, 100 X TBW/HBW) [2]: 40.9 | HBW (half band width) [2]: 82 nanometers | λ-max (maximum absorption peak of dye) [2]: 549
Structure (SMILES): CCCCCCCCCCC(CN(C)S(=O)(=O)c1ccc(NC2=NN(c3c(Cl)cc(S(=O)(=O)N(C)C)cc3Cl)C(=O)C2)c(Cl)c1)Oc1ccc(S(=O)(=O)c2ccc(O)cc2)cc1 (stereo not drawn) [Coupler M-32]

CSF (curve shape factor, 100 X TBW/HBW) [4]: 43.7 | HBW (half band width) [4]: 88 nanometers | λ-max (maximum absorption peak of dye) [4]: 449
Structure (SMILES): CC(C)(C)C(=O)C(Oc1ccc(S(=O)(=O)c2ccc(OCc3ccccc3)cc2)cc1)C(=O)Nc1cc(NS(=O)(=O)c2ccc(O)cc2)ccc1Cl (stereo not drawn) [Coupler Y-1]

CSF (curve shape factor, 100 X TBW/HBW) [4]: 44.4 | HBW (half band width) [4]: 90 nanometers | λ-max (maximum absorption peak of dye) [4]: 445
Structure (SMILES): CCCCC(Oc1ccc(S(=O)(=O)c2ccc(O)cc2)cc1)C(=O)Nc1ccc(Cl)c(NC(=O)C(Oc2ccc(S(=O)(=O)c3ccc(O)cc3)cc2)C(=O)C(C)(C)C)c1 (stereo not drawn) [Coupler Y-2]

CSF (curve shape factor, 100 X TBW/HBW) [4]: 44.4 | HBW (half band width) [4]: 93 nanometers | λ-max (maximum absorption peak of dye) [4]: 441
Structure (SMILES): CCCCC(Oc1ccc(S(=O)(=O)c2ccc(O)cc2)cc1)C(=O)Nc1cccc(NC(=O)C(Oc2ccc(S(=O)(=O)c3ccc(O)cc3)cc2)C(=O)C(C)(C)C)c1 (stereo not drawn) [Coupler Y-3]

CSF (curve shape factor, 100 X TBW/HBW) [5]: 44.6 | HBW (half band width) [5]: 90 nanometers | λ-max (maximum absorption peak of dye) [5]: 450
Structure (SMILES): CCCCCCCCCCC(Oc1ccc(S(=O)(=O)c2ccc(O)cc2)cc1)C(=O)Nc1ccc(Cl)c(NC(=O)C(Oc2ccc(S(=O)(=O)c3ccc(O)cc3)cc2)C(=O)C(C)(C)C)c1 (stereo not drawn) [Coupler Y-4]
